Measured values as given in patent publication US4898936A, “2-deoxyuridines and riboside precursors” (priority 1985, dated 1990).
“And” between values parts separate entries of the source, which are not always exact repeats. Equal values may be shown once.

Experiments:
[1] = tested on: Sarcoma 180; conditions: from Table 1; cited from earlier work
[2] = tested on: Sarcoma 180; assay type: in vivo, mouse (male ICR/JCL-strain); conditions: toxicity value (B) / antitumor activity value (A); oral, mice
Method: (c) Calculation of therapeutic index
By the use of the antitumor activity value (hereinafter referred to as A) and the toxicity value (hereinafter referred to as B) of each compound, which were obtained in the above items (a) and (b), respectively, therapeutic index (hereinafer referred to as C) was calculated in accordance with the following equation: […]
Pharmacological tests-(Continued) [formula]

[3] = tested on: Sarcoma 180; conditions: cited from earlier work; for Antitumor activity value (A): Administration amount of test compound, at which tumor enhancement is inhibited by 50% compared with that of control group: oral, once a day for 7 consecutive days, tumor weight on tenth day, Sarcoma 180, mice, 14400 min
[4] = assay type: in vivo; conditions: lethal dose, administered orally; + Test animals alive at indicated dose
Method: (§1) The effective dose and the lethal dose has been determined as follows:
The dosage is administered

[5] = tested on: Sarcoma 180; test: Antitumor activity in mice against Sarcoma 180 (effective dose); assay type: in vivo; conditions: Sarcoma 180, mice; for ED50: Mus musculus, po, effective dose, administered orally
Method: as §1
^+ Test animals alive at indicated dose. The dosage is administered

[6] = cited from earlier work; for Toxicity value (B): Administration amount of test compound at which weight increase of test animal is inhibited by 50% compared with that of control group: oral, once a day for 7 consecutive days, mice
[7] = tested on: Sarcoma 180; test: Comparison of activities of antitumor agents on Sarcoma 180 in mice (50% tumor regression); assay type: in vivo; conditions: Mus musculus
From the text: In comparison with the activities of other antitumor agents on Sarcoma 180 in mice, the following results were obtained: […]

[8] = Hygroscopicity; assay type: physicochemical; conditions: beta-anomer

| SMILES | usefulness when compared in therapeutic index (in words) [1] | Therapeutic Index (C) = (B)/(A) [2] | antitumor activity compared with F3 TdR and FudR (in words) ([3]; from Table 1) | Antitumor activity value (A): Administration amount of test compound, at which tumor enhancement is inhibited by 50% compared with that of control group [3] | LD10 [4] | ED50 [5] | antitumor activity in mice against Sarcoma 180 (in words) [5] | toxicity compared with F3 TdR and FudR (in words) ([6]; from Table 1) | Toxicity value (B): Administration amount of test compound at which weight increase of test animal is inhibited by 50% compared with that of control group [6] | ED50 [7] | hygroscopicity [8] |
| --- | --- | --- | --- | --- | --- | --- | --- | --- | --- | --- | --- |
| O=c1[nH]c(=O)n([C@H]2C[C@H](OCc3ccccc3)[C@@H](CO)O2)cc1C(F)(F)F [3'-O-Benzyl-2'-Deoxy-5-Trifluoromethyluridine] | especially useful | 1.88 | far superior to them in antitumor activity | 17 mg/kg/day | 80 mg/kg | 14 mg/kg | show antitumor activity in mice against Sarcoma 180 | equal or superior to F3 TdR and FudR in toxicity | 32 mg/kg/day | 14 mg/kg | – |
| O=c1[nH]c(=O)n([C@H]2C[C@H](OCc3ccccc3)[C@@H](CO)O2)cc1F [3'-O-Benzyl-2'-deoxy-5-fluorouridine, 3'-O-Benzyl-2'-Deoxy-5-Fluorouridine] | especially useful | 2.06 | – | 17 mg/kg/day | – | – | show antitumor activity in mice against Sarcoma 180 | – | 35 mg/kg/day | – | not hygroscopic |
| Nc1nc(=O)n([C@H]2C[C@H](O)[C@@H](CO)O2)cc1C(F)(F)F [CF3 dC, 5-Trifluoromethyl-2deoxycytidine] | – | – | – | – | – | – | – | – | – | 60 to 80 mg/kg | – |
| O=c1[nH]c(=O)n([C@H]2C[C@H](O)[C@@H](CO)O2)cc1C(F)(F)F [F3 TdR, 2'-deoxy-5-trifluoromethyluridine, reference compound] | – | – | – | 68 mg/kg/day and 58 mg/kg/day | – | 75 mg/kg | – | – | 49 mg/kg/day and 40 mg/kg/day | 60 to 80 mg/kg | – |
| O=c1[nH]c(=O)n(C2CCCO2)cc1F (stereo not shown) [Ftorafur] | – | – | – | – | – | – | – | – | – | 120 mg/kg | – |
| O=c1[nH]c(=O)n([C@H]2C[C@H](O)[C@@H](CO)O2)cc1F [FudR, 2'-deoxy-5-fluorouridine, reference compound] | – | 0.76 | – | 93 mg/kg/day | – | – | – | – | 71 mg/kg/day | – | – |
